This is an account of results in patent US20190071416A1, “COMPOUNDS FOR TREATMENT OF CANCER AND EPIGENETICS” (Agency For Science, Technology and Research, priority 2015, published 2019).

Read-outs that look alike come from different tables or passages of the source.

The test system of one assay is A549. Put plainly: Cell proliferation assay (CellTiter-Glo), A549. The class given is cell-based. The following applies: Homo sapiens, A549, 72 h; 3 days. Here is the method: (§1) The cell proliferation assays were tested in several cell lines, including HepG2,HCT116, A549, HPAF-II, CFPAC-1,HuH7, SNU398,Hep3B, and HEK293. All cell lines are from ATCC. HepG2, HPAF-II and HEK293 are cultured in Eagle's MEM media supplemented with fetal bovine serum. HCT116 is cultured in McCoy media supplemented with fetal bovine serum. Huh-7 is cultured in DMEM low glucose (1000 mg/L glucose) with 10% FBS, 1% L-Glutamate and 1% Penicillin/Streptomycin. SNU398 is cultured in RPMI with 10% FBS with 1% L-Glutamate and 1% Penicillin/Streptomycin. Hep3B is cultured in Eagle's MEM with 10% FBS, 1% L-Glutamate and 1% Penicillin/Streptomycin. A549 is cultured in RPMI media supplemented with fetal bovine serum while CFPAC-1 is cultured in IMDM media supplemented with fetal bovine serum. All media and serum are purchased from Gibco (Lifetech). All cells were grown in a temperature controlled incubator at 37° C. and 5% CO2.
(§2) Cell proliferation assay was performed using CellTiter-Glo Luminescent Cell Viability Assay (Promega) following manufacturer's instructions. The cell-line of interest was treated with compounds that were serial diluted in its respective media. Plates were incubated for 3 days at 37° C. in 5% CO2. After 3 days, an equal volume of Cell Titer Glo reagent was added. Plates were rocked on a rotator for 2 h. 100 μL of each well were transferred to a 96-well opaque plate, and luminescence emitted was measured with the Tecan Safire II.
In general terms: In ATP-based viability assays light output follows the ATP content of the culture.

The target of a further assay is T1, SMYD3 (Homo sapiens, UniProt Q9H7B4).
T1 sequence (Q9H7B4 1-428): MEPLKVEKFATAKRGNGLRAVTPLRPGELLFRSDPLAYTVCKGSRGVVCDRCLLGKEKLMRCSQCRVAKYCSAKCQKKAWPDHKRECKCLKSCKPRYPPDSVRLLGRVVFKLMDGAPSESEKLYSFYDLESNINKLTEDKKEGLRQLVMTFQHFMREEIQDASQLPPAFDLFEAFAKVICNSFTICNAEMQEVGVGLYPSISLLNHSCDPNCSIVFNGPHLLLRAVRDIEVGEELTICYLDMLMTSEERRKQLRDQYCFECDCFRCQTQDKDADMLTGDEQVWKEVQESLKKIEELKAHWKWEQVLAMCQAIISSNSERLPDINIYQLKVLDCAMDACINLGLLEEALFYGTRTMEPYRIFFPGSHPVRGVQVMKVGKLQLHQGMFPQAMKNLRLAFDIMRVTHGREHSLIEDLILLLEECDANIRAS
In words: SMYD3 biochemical assay (MTase-Glo, MAP3K2 peptide substrate). A digest of the protocol: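 Luminescent readout of SAH production (coupled SAH→ATP conversion, MTase-Glo) after SMYD3 reacted 30 min at room temperature with 1.0 µM SAM and 10 µM MAP3K2 peptide, both final. Non-linear regression gave IC50 values.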

Assay [1] has as its system MAP3K2 methylation (me2/me3-Lys 260). Put plainly: SMYD3 mediated methylation of MAP3K2 in HEK293 cells (Western blot). The class given is cell-based, Human. The following applies: 25 μM. Here is the method: The cells were seeded in 6 well plates. After seeding for 24 h, the cells were treated with either DMSO or 25 μM compound and incubated for 24 hr. The cells were trypsinized and the lysate was extracted with RIPA buffer (Santa Cruz). The total protein concentration of lysate is quantified using the standard Bradford assay (Biorad protein assay, microplate standard assay).
Western blot analysis for detecting methylated MAP3K2 was carried out using a customized Anti-me2/me3-Lys 260 MAP3K2 at 1:500 and the total MAP3K2 was detected using Anti-MEKK2 (AB33918) using a 1:10,000 dilution.
B019 was further tested for its ability to inhibit SMYD3 in cells through its effects on cellular MAP3K2 methylation. This was performed using an antibody against the MAP3K2 (me2/me3), Anti-ME2/ME3-K260-MAP3K2 (1:500) and total MAP3K2, Anti-MEKK2 #ab33918 (1:10,000).
Background: Immunoblotting shows a protein as a band on a membrane.

The next assay relates to Hep G2 cells. In words: Soft agar colony formation assay. It is filed as cell-based, human. Here is the method:
Hep G2 cells were purchased from ATCC. Hep G2 cells were maintained in Eagle's Minimum Essential Medium (Sigma, Cat No: #M0643) supplemented with 10% Fetal Bovine Serum (Hyclone, Cat No: SV30087.03), 2 mM L-glutamine, 100 units/mL penicillin and 100 μg/mL streptomycin (Life Technologies, Cat No: 10378-016). The soft agar assays were performed in concordance to the ETC approved method report for soft agar assay (ETC document number: RD0019). Briefly, 600 μL of 0.6% agar was added to 24-well plate (Corning, Cat No: 3738) to form the base layer. This is followed by the addition of 500 μL of 0.36% agar middle layer (containing 10′000Hep G2 cells). Lastly, 500 μL of fresh growth medium (containing the corresponding serially diluted compound) was added above the middle layer. The plates were incubated at 37° C. with 5% carbon dioxide in a humidified incubator for 1 to 2 weeks. 70 μL of thiazolyl blue tetrazolium bromide (5 mg/mL, Sigma Cat No: M5655) was added to each well and the plates were incubated at 37° C. for 2 h. Colonies were counted with GelCount® instrument (Oxford Optronix). The colony counts were plotted against compound concentrations using the Graphpad Prism software. In addition, the software was used to perform non-linear curve fitting and the calculation of IC50.

In a further assay the test system is HepG2. Put plainly: Cell proliferation assay (CellTiter-Glo), HepG2. It is filed as cell-based. The following applies: Homo sapiens, HepG2, 72 h; 3 days. The protocol:
as §1, §2

The subject of the next assay is HCT-116. In words: Cell proliferation assay (CellTiter-Glo), HCT-116. The class given is cell-based. The following applies: Homo sapiens, HCT-116, 72 h; 3 days. Here is the method: as §1, §2

Broadly, the GI50 is the concentration giving 50% growth inhibition. A lower GI50 goes with more potent growth inhibition. For orientation: IC50 means the concentration needed to halve the response being measured. What is called inhibition is the change of the read-out against control, counted positive when it falls. A high value points to a response far below the control.

Regarding `CCCOC(=O)N1CCN(C(=O)c2ccc3c(Cl)cc(-c4ccccc4)nc3c2)C[C@H]1C` [B019, Propyl (R)-4-(4-chloro-2-phenylquinoline-7-carbonyl)-2-methylpiperazine-1-carboxylate], the 50% growth inhibitory concentration (GI50) came to 28800 nM in the assay with A549, 18800 nM in the assay with HepG2 and 17900 nM with HCT-116. The IC50 at SMYD3 (Table 1, MAP3K2 peptide as substrate, read-out: IC50) worked out at 59.5 nM; on SMYD3 (Table 2, read-out: Biochemical assay IC50) it was 59.5 nM; on SMYD3 (Table 3, MTase assay, MAP3K2 peptide substrate, read-out: IC50) it was 60 nM; with Hep G2 cells (Homo sapiens, HepG2, Hep G2, soft agar), 230 nM. Further, the “inhibition of methylation of MAP3K2 in cells” value in assay [1] is recorded as “inhibited”. Besides, the “total MAP3K2 levels” value in assay [1] is “without changing”. This molecule also showed a maximum inhibition in the assay on Hep G2 cells (Hep G2, soft agar) of 97.2%. Also, the inhibition at 10 µM with Hep G2 cells (Homo sapiens, HepG2, highest concentration tested (10 μM)) was ~100%.
